# Source: PubChem BioAssay AID179 (DTP/NCI, 2004)
# Several values for one entry are separate records, joined by “and”; a condition that tells them apart may be missing. Equal entries are not always repeated. Activity calls are given as the source filed them.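 How the source made its calls: active means compounds giving half or more protection of infected cells from virus-caused growth loss, again on retest; inactive means the rest.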
# Test system: CEM cells HIV-1 protection, formazan growth assay
# Assay: NCI AIDS Antiviral Assay
# Conditions: for IC50: measured here: growth of uninfected CEM cells
# Procedure: The ability of compounds to protect human CEM cells from HIV-1 infection is measured as a screen for new compounds capable of inhibiting the HIV virus. Five concentrations of drug were tested on uninfected and infected cells and cell growth was measured using a soluble formazan assay. […] Compounds that provided at least 50% protection were retested. Compounds that provided at least 50% protection on retest were listed as moderately active. Compounds that reproducibly provided 100% protection were listed as confirmed active. […] Note that the inability to provide protection could be due to toxicity.
Compound,EC50,IC50,outcome
Cc1cc2nc3c(C(O)C(O)C(O)CO)nn(-c4ccc(F)cc4)c3nc2cc1C (configuration not stated),89.1 µM,> 200 µM,
Cc1cc2c(nn1)CCc1c-2no[n+]1[O-],> 200 µM,174 µM,
COc1ccc(-c2c(C)oc(=O)c(NC(=O)c3ccccc3)c2C)cc1,> 200 µM,57.5 µM,
CC(=O)c1cccc(NC(=O)C(=O)C(C2OC(=O)c3ccccc32)[N+](=O)[O-])c1 (configuration not stated),> 468 µM,> 468 µM,
COC(=O)/C(=N/NC(C)(C)C)C(C(=O)C=C(C)C)C(=O)C(=O)Nc1ccc(Cl)cc1C (configuration not stated),> 398 µM,269 µM,
CCCc1nc(N)nc(C(=O)Nc2cccc(C(F)(F)F)c2)c1CC,> 708 µM,> 708 µM,
CN1CCCCCCC1CO (configuration not stated),,,inactive
C=C(c1ccccc1)C1ON(C)CCc2cc(OC)c(OC)cc21 (configuration not stated),> 200 µM,> 100 µM,
N#CC(N)(C(=O)CCC(=O)Nc1cccc(Cl)c1)c1ccc(Cl)cc1 (configuration not stated),> 661 µM,> 661 µM,
O=C1CC(=O)N(CCc2ccncc2)C(=O)N1CCc1ccncc1,,> 200 µM,inactive
O=P(c1ccccc1)(c1ccccc1)C1CC=C2CCCCCC2C1 (configuration not stated),> 5.37 µM,> 5.37 µM,
CCOC(=O)C1=C(C)N(NC(=O)c2ccccc2)C2(O)CCCC12C(=O)OCC (configuration not stated),> 447 µM,245 µM,
Oc1[nH]c2ccccc2c1N=NC(=S)NCc1ccccn1,> 2 µM,0.0295 µM,
CC(C(=O)O)c1ccc2c(c1)[nH]c1ccc(Cl)cc12 (configuration not stated),> 245 µM,141 µM,
O=C(Nc1cccc(C(=O)NCCCO)c1)/C(=C/c1ccccc1)NC(=O)c1ccccc1,> 200 µM,> 200 µM,
O=C(OCc1ccccc1)N1CCNCCNCC1,> 200 µM,> 200 µM,
Cc1ccc(-c2c3nc(c(-c4ccc(C)cc4)c4ccc([nH]4)c(-c4ccc(C)cc4)c4nc(c(-c5ccncc5)c5ccc2[nH]5)C=C4)C=C3)cc1.Cc1ccc(-c2c3nc(c(-c4ccc(C)cc4)c4ccc([nH]4)c(-c4ccc(C)cc4)c4nc(c(-c5ccncc5)c5ccc2[nH]5)C=C4)C=C3)cc1.O=S(=O)([O-])C(F)(F)F.[Pd+2].c1ccc([PH+](CCC[PH+](c2ccccc2)c2ccccc2)c2ccccc2)cc1,> 50.1 µM,3.47 µM,
CCC(=O)C(C)C1=Nc2nnc(CCCCCCCc3nnc4n3C(=O)C(C(C)C(=O)CC)=N4)n2C1=O (configuration not stated),> 1.07 µM,> 1.07 µM,
CSc1n[nH]c(N)c1C(=O)Nc1ccc(Cl)cc1,0.457 µM,1.86 µM,
Oc1c2cccc1Cc1cccc3c1OCCOCCOCCOCCOc1c(cccc1Cc1cccc(c1O)C3)C2,> 200 µM,50.1 µM,
CCOC(=O)N1CCN(C=S)CC1,> 1230 µM,> 1230 µM,

Compound,EC50,IC50,outcome
COc1ccc(C2=Nc3ccccc3SC(c3ccc(OC)cc3)C2)cc1 (configuration not stated),> 47.9 µM,25.7 µM,
C=C(C)[C@@H]1CCC2=C[C@@H](OC2=O)[C@@H](C(=C)C)C2=CC(C(=O)O)=C(C1)O2,> 200 µM,91.2 µM,
CN=C(NNc1ccc([N+](=O)[O-])cc1)P(=O)(OC(C)C)OC(C)C,> 7.24 µM,> 7.24 µM,
COc1cc(C(c2c(O)c3ccccc3oc2=O)N2CCCC2)cc(OC)c1OC (configuration not stated),> 200 µM,107 µM,
CCOP(=O)(OCC)/C(C#N)=C/c1cccc(C)c1,> 339 µM,> 339 µM,
N#Cc1c2ccc([N+](=O)[O-])cc2c(=O)n2c1[nH]c1ccc(C(F)(F)F)cc12,> 200 µM,1.91 µM,
O=C(Nc1cccc([N+](=O)[O-])c1)/C(=N\NC(=O)c1ccncc1)c1nc2ccc([N+](=O)[O-])cc2[nH]c1=O,> 135 µM,47.9 µM,
O=[N+]([O-])C(=C(Nc1ccccc1)Nc1ccccc1)C(Cl)=C(Cl)Cl,> 200 µM,17.4 µM,
O=P1(c2ccccc2)Nc2ccccc2N1c1ccccc1 (configuration not stated),> 200 µM,38 µM,
NC1CC(=O)c2c(Cl)sc(Cl)c21 (configuration not stated),> 200 µM,3.47 µM,
Nc1cnc(Nc2cccc3ccccc23)o1,> 200 µM,> 200 µM,
CC(C)(C)c1ccc(O)c(C(O)c2cccnc2)c1 (configuration not stated),> 200 µM,61.7 µM,
O=C1CCCC1C(O)(C(F)(F)Cl)C(F)(F)Cl (configuration not stated),> 200 µM,> 200 µM,
CCOP(=O)(OCC)/C(C#N)=C/c1nccn1C,,,inactive
CCN(CC)c1ccc(C2N3CCCCC3[C@@H]3c4[nH]c5ccccc5c4CCN23)cc1 (some centres not stated),> 16.2 µM,> 16.2 µM,
Cn1c(=O)c(=O)n(C)c2nc3ccccc3nc21,> 4.27 µM,> 4.27 µM,
O=S(=O)(O)c1cc(Nc2ccnc3ccccc23)c2c(S(=O)(=O)O)cc(S(=O)(=O)O)cc2c1,> 200 µM,> 200 µM,
O=C(COc1ccccc1Cl)N1N=C(c2ccccc2)CC1(O)c1ccccc1 (configuration not stated),> 24.5 µM,> 24.5 µM,
O=[N+]([O-])c1ccc(CN=C2NNS(=O)(=O)c3ccccc32)cc1,> 15.8 µM,> 15.8 µM,
O=C(O)CCNS(=O)(=O)c1ccc2ccccc2c1,,,inactive
CC(=O)NCCSSCCCCSSCCNC(C)=O,> 200 µM,95.5 µM,

Compound,EC50,IC50,outcome
O=C(O)C12CCC(CC1=O)C2 (configuration not stated),> 200 µM,> 200 µM,
CN(C)C=NCCN1CCOCC1,> 200 µM,> 200 µM,
N#Cc1c(N=C/C=C/c2ccccc2)c(C(=O)Nc2ccccc2)n2c1CCC2,> 200 µM,> 200 µM,
CN1N(c2ccccc2)C(=O)C2=NC=C(C#N)C(=N)C21C (configuration not stated),> 200 µM,64.6 µM,
CCOC(=O)/C=C/n1cc(C)c(=O)[nH]c1=O,> 224 µM,117 µM,
COc1ccc(C2CC(=O)Oc3ccccc3O2)cc1 (configuration not stated),102 µM,151 µM,
N/N=C1\CCCc2c1no[n+]2[O-],> 200 µM,> 200 µM,
O=c1oc2ccccc2c(O)c1C(c1ccc2c(c1)OCO2)N1CCCC1 (configuration not stated),> 200 µM,93.3 µM,
CC1=C(C(=O)Nc2ccc([N+](=O)[O-])cc2)C(c2ccccc2F)C(C(=O)Nc2ccc([N+](=O)[O-])cc2)=C(C)N1,> 13.5 µM,> 13.5 µM,
N#CN/C(N)=N/CO,> 776 µM,46.8 µM,
COc1ccc(-c2c(C#N)c(=O)nc(SC)n2C2OCC(OC(C)=O)C(OC(C)=O)C2OC(C)=O)cc1 (configuration not stated),> 200 µM,35.5 µM,
Cc1ccc(NC(=O)CCc2nc(N)nc(N)c2-c2ccccc2)cc1C,> 692 µM,> 692 µM,
O=C1c2ccccc2C(=O)C1(c1ccccn1)[N+](=O)[O-],> 200 µM,72.4 µM,
CC(=O)OCC1OC(n2c3c(c(-c4ccc(Cl)cc4)c(C#N)c2=S)CCCC3)C(OC(C)=O)C(OC(C)=O)C1OC(C)=O (configuration not stated),> 200 µM,26.3 µM,
CCOC(=O)c1sc2nc(SC)nc3c2c1N=CN3c1ccccc1Cl,> 100 µM,> 100 µM,
COc1ccc(-c2c3nc(c(-c4ccc(OC)cc4)c4[n-]c(c(-c5ccc(OC)cc5)c5nc(c(-c6ccc(OC)cc6)c6[n-]c2c2ccccc62)-c2ccccc2-5)c2ccccc42)-c2ccccc2-3)cc1.[Zn+2],> 50.1 µM,> 50.1 µM,
COc1ccccc1N1C(=O)CSC1=Nc1ccccc1,> 112 µM,> 112 µM,
CC(=O)C(=[N+]=[N-])C(=O)NCC#N,> 200 µM,> 200 µM,
CC(=O)O/N=C/c1cc2c(cc1Br)OCO2,> 18.2 µM,> 18.2 µM,
CC(=O)OCC1CCC(=C2C(=O)OC(C)(C)OC2=O)N1 (configuration not stated),> 200 µM,> 200 µM,
Cc1cc(=O)n(-c2ccccc2)c(=O)o1,,,inactive

Compound,EC50,IC50,outcome
CC(C)C(Sc1nc(-c2ccccc2)c(-c2ccccc2)[nH]1)C(=O)NNC(=S)Nc1ccccc1 (configuration not stated),> 51.3 µM,24 µM,
COc1cc(NC(=O)c2ccc(NC(=O)c3ccc(N)cc3)cc2)c(OC)cc1N=Nc1ccc(N=Nc2ccc3cc(S(=O)(=O)O)cc(S(=O)(=O)O)c3c2)c(C)c1,19.5 µM,> 100 µM,
CNC(=O)N1CN(c2ccccc2)C2(CCN(CCCC3(c4ccc(F)cc4)OCCO3)CC2)C1=O,> 200 µM,38.9 µM,
COC1=CC(=C(c2ccc(O)c(OC)c2)c2ccc(O)c(OC)c2)C=CC1=O,> 200 µM,3.55 µM,
CN(C)CCCCN1CCc2c(n(C)c3ccccc23)C1=O,> 603 µM,43.7 µM and 72.4 µM,
Clc1c2ccccc2[se][n+]1Cc1ccccc1,> 15.1 µM,12.3 µM,
CCOC(=O)C(C)Sc1nnc(COc2ccc(Cl)cc2)n1-c1ccccc1 (configuration not stated),> 100 µM,47.9 µM,
C=CC(CCC(C)O)[Si](C)(C)C (configuration not stated),> 977 µM,> 977 µM,
CCOP(=O)(OCC)/C(C#N)=C/c1cc(OC)ccc1OC,> 398 µM,24 µM,
CCOC(=O)c1c2c(nc3c1CCCC3)CCCC2,> 200 µM,64.6 µM,
O=C(C[P+](c1ccccc1)(c1ccccc1)c1ccccc1)c1ccc([N+](=O)[O-])cc1,> 200 µM,19.1 µM,
C1CSCCSCCCSCCSCCCSCCSC1,> 200 µM,> 200 µM,
CCN(CC)c1c(C(C)(C)C)c(=O)n2ccsc2c1OC(C)=O,> 200 µM,32.4 µM,
CCOC(=O)CC(O)(c1ccccc1)c1ccccc1,> 10 µM,> 10 µM,
O=C1OC(c2ccccc2)=N/C1=C\c1ccc2ccccc2c1,> 17.4 µM,> 17.4 µM,
CCc1ccccc1NC(=O)C(=O)C1C(=O)N(c2ccccc2)N=C1N (configuration not stated),> 708 µM,224 µM,
Nc1nc2ncn(CC(O)CO)c2c(=O)[nH]1 (configuration not stated),> 60.3 µM,> 60.3 µM,
COc1ccc(-c2c3c(n(C4OC(CO)C(O)C(O)C4O)c(=S)c2C#N)CCC3)cc1 (configuration not stated),> 200 µM,43.7 µM,
CCOC(=O)CC(C#N)(CC(=O)OCC)C(=O)OCC,,,inactive
COc1ccc(C(=O)O)c(Cc2cccc3ccccc23)c1,,,inactive
O=c1[nH]c2c(cnn2-c2ccccc2)c(=O)n1O,> 200 µM,> 200 µM,
